As usually defined, the IC50 is the concentration needed to halve the response being measured.

“And” between values parts separate entries of the source, which are not always exact repeats. Identical values can stand only once. Like-named read-outs stand apart in the source and are kept apart here.

From US20240025919A1, “AZA-TETRACYCLIC OXAZEPINE COMPOUNDS AND USES THEREOF” (Genentech, Inc., priority 2022, published 2024) come the findings set out here.

Test [1] relates to H1975 (KRAS wild type human lung adenocarcinoma cell line). Kind of test: KRAS 3D-Cell Proliferation Assay, H1975 (CellTiter-Glo 3D, 7 days). Particulars: H1975 3D culture, read-out: Prolif H1975 3D ATP IC50. Format: cell-based. The gist of the method: (§1)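 Cells were grown as 3D cultures in ultra-low attachment plates in RPMI-1640 with 10% FBS and 2 mM glutamine. Compound dilution series (0.3% DMSO final) were added after overnight culture, and plates were incubated for 7 days at 37 °C. CellTiter-Glo 3D luminescence was normalised to DMSO and 1 uM staurosporine, and IC50 was taken from 4-parameter Hill fits.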
In general terms: Cellular ATP, detected with luciferase, serves as a proxy for viable cell number.

Test [2] relates to HPAC (homozygous mutant KRAS G12D human pancreatic cell line). Kind of test: KRAS 3D-Cell Proliferation Assay, HPAC (CellTiter-Glo 3D, 7 days). Format: cell-based. Particulars: HPAC 3D culture, read-out: Prolif HPAC 3D ATP IC50. The gist of the method: as §1
In test [3] the target is T1, KRAS WT (Homo sapiens (Human), UniProt P01116). Kind of test: KRAS WT Biochemical Assay, BODIPY-GDP Exchange TR-FRET (Example 502; 0.06 nM KRAS WT, 15 nM GDP, 300 nM SOS1, 120-minute incubation). Particulars: read-out: KRas HTRF IC50. The gist of the method:
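Biotin-tagged recombinant KRAS WT (0.06 nM) preloaded with 15 nM GDP and Tb-streptavidin, 10 min RT, then exchange started with 300 nM SOS1 plus 300 nM BODIPY-GDP in HEPES pH 7.5 buffer with MgCl2. TR-FRET 520/490 ratio read after 120 min; normalized to DMSO and full-inhibition control; IC50 from 4-parameter fit.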

The target in the next test is KRAS G12D (Homo sapiens (Human), UniProt P01116, G12D). Kind of test: KRAS G12D LoEnz Biochemical Assay, BODIPY-GDP Exchange TR-FRET (SOS1-mediated nucleotide exchange). Particulars: read-out: KRas (G12D) GDP HTRF IC50. (TR-FRET usually uses a lanthanide donor and a delayed reading to cut background.)
KRAS G12D, sequence (P01116-2 other isoform, or with tags, fused parts or gaps G12D): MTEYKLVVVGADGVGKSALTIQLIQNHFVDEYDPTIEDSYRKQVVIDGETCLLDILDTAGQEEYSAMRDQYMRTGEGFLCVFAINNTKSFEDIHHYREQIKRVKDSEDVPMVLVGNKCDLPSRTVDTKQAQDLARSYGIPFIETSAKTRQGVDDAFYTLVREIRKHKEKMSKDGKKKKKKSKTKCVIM
For test [4], the system named is AsPC-1 (homozygous mutant KRAS G12D human pancreatic cell line). Kind of test: KRAS 3D-Cell Proliferation Assay, AsPC-1 (CellTiter-Glo 3D, 7 days). Format: cell-based. The following applies: AsPC-1 3D culture, read-out: Prolif AsPC-1 3D ATP IC50. As for the experimental part: Example 503: KRAS 3D-Cell Proliferation Assays. Cellular potencies of compounds are assessed by evaluating inhibition of proliferation in 3D cultures of homozygous mutant KRAS G12D human pancreatic cell lines (AsPC-1 and HPAC) as compared to a KRAS wild type human lung adenocarcinoma cell line (PC-9 and/or H1975). Cells are seeded into 384-well black round-bottom, ultra-low attachment assay plates in 50 uL cell growth medium (RPMI-1640 with 10% fetal bovine serum and 2 mM L-glutamine). After overnight incubation at 37° C. and 5% CO2, compounds solubilized in DMSO are added as dilution series to the wells in a total volume of 150 nL (0.3% DMSO final). The cells are incubated for 7 days at 37° C. and 5% CO2. Cell proliferation is quantitated by addition of 40 uL/well of CellTiter-GloO 3D (Promega), and the well contents are mixed 20× at high speed using liquid handling automation workstation (Bravo with 384-well head) and centrifuged at 1500 rpm for 2 minutes to eliminate bubbles. This reagent in combination with mechanical disruption releases the cellular ATP to promote activity in a luciferase-based enzyme/substrate chemiluminescent detection system. After a 30-minute incubation under ambient conditions with shaking and an additional 10 minutes without shaking, the luminescence is read on a plate reader (e.g. EnVision [PerkinElmer]). The results are normalized to percent inhibition based on the following control samples: DMSO (0% inhibition) and 1 uM staurosporine (100% inhibition). The normalized luminescence results are plotted against compound concentration, and the data are fit to a 4-parameter Hill equation to determine the IC50 values.

The test system of test [5] is PC-9 (KRAS wild type human lung adenocarcinoma cell line). Kind of test: KRAS 3D-Cell Proliferation Assay, PC-9 (CellTiter-Glo 3D, 7 days). It is filed as cell-based. The following applies: PC-9 3D culture, read-out: Prolif PC9 3D ATP IC50. Put shortly: as §1
For test [6], the target named is T1, KRAS WT. Kind of test: KRAS WT Biochemical Assay, BODIPY-GDP Exchange TR-FRET (Example 501; 3 nM KRAS WT, 3 nM SOS1, 60-minute incubation). Particulars: read-out: KRas(wt) GDP HTRF IC50. The gist of the method: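 SOS1-mediated exchange assay: 3 nM biotin-KRAS WT with terbium-streptavidin, started with 3 nM SOS1 and 300 nM BODIPY-GDP, HEPES pH 7.5 with MgCl2. TR-FRET (520/490 nm) read after 60 min; normalized to DMSO and full-inhibition control, IC50 from 4-parameter Hill fit.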

T1 sequence (P01116-2 other isoform, or with tags, fused parts or gaps): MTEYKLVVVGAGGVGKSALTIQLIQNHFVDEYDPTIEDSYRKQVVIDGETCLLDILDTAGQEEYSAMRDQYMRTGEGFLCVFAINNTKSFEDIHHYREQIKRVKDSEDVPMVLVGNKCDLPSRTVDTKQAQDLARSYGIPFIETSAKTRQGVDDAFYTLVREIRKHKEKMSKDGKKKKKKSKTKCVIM

On to `Cc1c(F)c(N)cc(-c2nc3c4c(nc(OC[C@]56CCC[C@@H]5N(C)CCC6)nc4c2F)N2C[C@H]4CC[C@H](N4)[C@H]2[C@H](C)O3)c1C(F)(F)F` (single isomer, unassigned) [126 (isomer 1)], for which the IC50 in test [1] (Homo sapiens, NCI-H1975, 168 h) amounted to 770 nM; in test [2] (Homo sapiens, HPAC, 168 h), 0.51 nM; on KRAS WT [3] it was 0.42 nM; on KRAS G12D, 0.1 nM; in test [4] (Homo sapiens, ASPC1, 168 h), 0.6 nM.
On to `CN1CCC2COc3nc(-c4cc(O)cc5cccc(F)c45)c(F)c4nc(OC[C@@]56CCCN5C[C@H](F)C6)nc(c34)N2CC1` (single isomer, unassigned) [Compound 49], for which the IC50 in test [5] was 4.24 µM; on KRAS WT [6], 561 nM and 331 nM; in test [4] (Homo sapiens, ASPC1, 168 h), 20000 nM.
With `Cc1ccnc(-c2nc3c4c(nc(OC[C@]56CCN5CC(F)(F)C6)nc4c2F)N2C[C@H]4CC[C@H](N4)[C@H]2[C@H](C)O3)c1C(F)(F)F` [Compound 88, (5S,5aS,6S,9R)-12-(((R)-3,3-Difluoro-1-azabicyclo[3.2.0]heptan-5-yl)methoxy)-1-fluoro-5-methyl-2-(4-methyl-3-(trifluoromethyl)pyridin-2-yl)-5a,6,7,8,9,10-hexahydro-5H-4-oxa-3,10a,11,13,14-pentaaza-6,9-methanonaphtho[1,8-ab]heptalene], the IC50 in test [5] (Homo sapiens, PC-9, 168 h) turned out to be 20 µM; on KRAS WT [3] it was 1620 nM; at KRAS G12D, 1470 nM; in test [4] (Homo sapiens, ASPC1, 168 h), 20000 nM.
Consider `C[C@@H]1Oc2nc(-c3cc(N)nc4ccccc34)c(F)c3nc(OC[C@]45CCN4CC(F)(F)C5)nc(c23)N2C[C@H]3CC[C@H](N3)[C@@H]12` [Compound 79, 4-((5S,5aS,6S,9R)-12-(((R)-3,3-Difluoro-1-azabicyclo[3.2.0]heptan-5-yl)methoxy)-1-fluoro-5-methyl-5a,6,7,8,9,10-hexahydro-5H-4-oxa-3,10a,11,13,14-pentaaza-6,9-methanonaphtho[1,8-ab]heptalen-2-yl)quinolin-2-amine], for which the IC50 in test [5] worked out at 20 µM; on KRAS WT [3], 1530 nM; at KRAS WT [6], 954 nM; at KRAS G12D, 22.7 nM; in test [4] it was 4040 nM.
With `Cc1c(F)c(N)cc(-c2nc3c4c(nc(OC[C@]5(CN6CC7(COC7)C6)CC5(F)F)nc4c2F)N2C[C@H]4CC[C@H](N4)[C@H]2[C@H](C)O3)c1C(F)(F)F` (mixture of isomers) [165 a, 5-((5S,5aS,6S,9R)-12-((1-((2-Oxa-6-azaspiro[3.3]heptan-6-yl)methyl)-2,2-difluorocyclopropyl)methoxy)-1-fluoro-5-methyl-5a,6,7,8,9,10-hexahydro-5H-4-oxa-3,10a,11,13,14-pentaaza[6,9]methanonaphtho[1,8-ab]heptalen-2-yl)-2-fluoro-3-methyl-4-(trifluoromethyl)aniline], the IC50 in test [1] (Homo sapiens, NCI-H1975, 168 h) came to 374 nM; in test [2] (Homo sapiens, HPAC, 168 h) it was 0.63 nM; on KRAS WT [3] it was 1.14 nM; at KRAS G12D, 0.08 nM; in test [4] (Homo sapiens, ASPC1, 168 h) it was 0.6 nM.
Regarding `Cc1c(F)c(N)cc(-c2nc3c4c(nc(OC[C@]5(CN6CC7(COC7)C6)CC5(F)F)nc4c2F)N2C[C@H]4CC[C@H](N4)[C@H]2[C@H](C)O3)c1C(F)(F)F` (stereo in doubt) [165 c, 5-((5S,5aS,6S,9R)-12-((1-((2-Oxa-6-azaspiro[3.3]heptan-6-yl)methyl)-2,2-difluorocyclopropyl)methoxy)-1-fluoro-5-methyl-5a,6,7,8,9,10-hexahydro-5H-4-oxa-3,10a,11,13,14-pentaaza[6,9]methanonaphtho[1,8-ab]heptalen-2-yl)-2-fluoro-3-methyl-4-(trifluoromethyl)aniline], the IC50 came out at 481 nM in test [1]; 1.09 nM in test [2]; 2.19 nM on KRAS WT [3]; 0.09 nM at KRAS G12D; 1.1 nM in test [4].
